Data from patent publication US9695154B2, “Heteroaryl inhibitors of sumo activating enzyme” (MILLENNIUM PHARMACEUTICALS, INC., priority 2013, dated 2017).

Target: T1, recombinant human SAE enzyme (Homo sapiens, UniProt Q9UBT2)
T1 sequence (Q9UBT2 1-640): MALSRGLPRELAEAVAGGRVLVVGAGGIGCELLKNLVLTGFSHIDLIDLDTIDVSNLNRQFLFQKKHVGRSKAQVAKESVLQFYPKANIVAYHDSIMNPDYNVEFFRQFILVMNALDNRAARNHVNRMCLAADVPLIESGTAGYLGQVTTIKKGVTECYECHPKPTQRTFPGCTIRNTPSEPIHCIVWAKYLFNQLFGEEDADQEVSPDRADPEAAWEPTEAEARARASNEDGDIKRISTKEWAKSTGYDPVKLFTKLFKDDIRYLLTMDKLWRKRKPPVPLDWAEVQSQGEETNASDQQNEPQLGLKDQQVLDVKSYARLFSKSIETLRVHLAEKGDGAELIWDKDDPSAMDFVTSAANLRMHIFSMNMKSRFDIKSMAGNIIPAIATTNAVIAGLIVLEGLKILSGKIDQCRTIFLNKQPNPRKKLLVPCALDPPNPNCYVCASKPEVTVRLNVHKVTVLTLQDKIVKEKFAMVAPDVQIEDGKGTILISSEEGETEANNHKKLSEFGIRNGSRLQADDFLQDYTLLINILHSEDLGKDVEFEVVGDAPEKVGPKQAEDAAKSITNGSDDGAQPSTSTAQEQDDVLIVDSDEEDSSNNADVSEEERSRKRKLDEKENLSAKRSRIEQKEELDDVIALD
T1 sequence (Q9UBE0 1-346 partner): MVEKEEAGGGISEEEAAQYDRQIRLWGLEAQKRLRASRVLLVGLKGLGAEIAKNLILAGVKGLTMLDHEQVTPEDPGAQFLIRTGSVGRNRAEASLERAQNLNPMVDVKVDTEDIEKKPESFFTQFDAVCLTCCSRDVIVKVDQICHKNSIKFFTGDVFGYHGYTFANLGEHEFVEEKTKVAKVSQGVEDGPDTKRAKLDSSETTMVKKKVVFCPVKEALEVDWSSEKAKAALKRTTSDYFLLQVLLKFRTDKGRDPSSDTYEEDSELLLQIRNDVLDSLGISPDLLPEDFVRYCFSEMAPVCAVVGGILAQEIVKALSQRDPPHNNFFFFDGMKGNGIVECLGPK
Test: SAE HTRF Enzyme Assay
Assay type: biochemical
Details: for IC50: class symbols A-C; for inhibition at 0.111 µM: read-out: Percent Inhibition
How it was run: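 Sumoylation of Ubc9-GST by recombinant human SAE was followed by time-resolved FRET between Eu-cryptate anti-Flag and allophycocyanin anti-GST antibodies. The enzyme step used low ATP (0.5 μM) at pH 7.5 and ran 105 min at 24° C.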

[1] = compound concentration 0.111 μM

Structure (SMILES)	IC50	inhibition at 0.111 µM [1]	Percent Inhibition (compound concentration 0.111 μM, 0.111 µM)
NS(=O)(=O)OC[C@H]1C[C@@H](Nc2ncncc2C(=O)c2ccn(Cc3ccc(Cl)c(Br)c3)c2)[C@@H](F)[C@@H]1O [Compound I-337, {(1R,2R,3R,4R)-4-[(5-{[1-(3-bromo-4-chlorobenzyl)-1H-pyrrol-3-yl]carbonyl}pyrimidin-4-yl)amino]-3-fluoro-2-hydroxycyclopentyl}methyl sulfamate]	< 10 nM	98%	–
CC#CCn1ccc(C(=O)c2cncnc2N[C@@H]2C[C@H](COS(N)(=O)=O)[C@@H](O)[C@@H]2F)c1 [Compound I-195, {(1R,2R,3R,4R)-4-[(5-{[1-(but-2-yn-1-yl)-1H-pyrrol-3-yl]carbonyl}pyrimidin-4-yl)amino]-3-fluoro-2-hydroxycyclopentyl}methyl sulfamate]	10 to 100 nM	90%	–
NS(=O)(=O)OC[C@H]1C[C@@H](Nc2ncncc2C(=O)c2cc(C(F)(F)F)n(Cc3cccc(Cl)c3)n2)C[C@@H]1O [Compound I-170, {(1R,2S,4R)-4-[(5-{[1-(3-Chlorobenzyl)-5-(trifluoromethyl)-1H-pyrazol-3-yl]carbonyl}pyrimidin-4-yl)amino]-2-hydroxycyclopentyl}methyl sulfamate]	< 10 nM	97%	–
NS(=O)(=O)OC[C@H]1C[C@@H](Nc2ncncc2C(=O)c2ccn(Cc3cccc(Oc4ccc(F)cc4)c3)n2)[C@H](O)[C@@H]1O [Compound I-229, [(1R,2R,3S,4R)-4-{[5-({1-[3-(4-fluorophenoxy)benzyl]-1H-pyrazol-3-yl}carbonyl)pyrimidin-4-yl]amino}-2,3-dihydroxycyclopentyl]methyl sulfamate]	10 to 100 nM	88%	–
NS(=O)(=O)OC[C@H]1C[C@@H](Nc2ncncc2C(=O)c2ccn(Cc3ccc(F)c(F)c3)n2)C[C@@H]1O [Compound I-212, {(1R,2S,4R)-4-[(5-{[1-(3,4-difluorobenzyl)-1H-pyrazol-3-yl]carbonyl}pyrimidin-4-yl)amino]-2-hydroxycyclopentyl}methyl sulfamate]	< 10 nM	95%	–
NS(=O)(=O)OC[C@H]1C[C@@H](Nc2ncncc2C(=O)c2ccn(Cc3ccc(F)c(Cl)c3)n2)[C@H](O)[C@@H]1O [Compound I-89, {(1R,2R,3S,4R)-4-[(5-{[1-(3-chloro-4-fluorobenzyl)-1H-pyrazol-3-yl]carbonyl}pyrimidin-4-yl)amino]-2,3-dihydroxycyclopentyl}methyl sulfamate]	< 10 nM	98%	–
NS(=O)(=O)OC[C@H]1C[C@@H](Nc2ncncc2C(=O)c2ccn(Cc3ccc(Cl)o3)n2)C[C@@H]1O [Compound I-180, [(1R,2S,4R)-4-{[5-({1-[(5-chloro-2-furyl)methyl]-1H-pyrazol-3-yl}carbonyl)pyrimidin-4-yl]amino}-2-hydroxycyclopentyl]methyl sulfamate]	< 10 nM	99%	–
NS(=O)(=O)OC[C@H]1C[C@@H](Nc2ncnc(Cl)c2C(=O)c2ccn(Cc3cccc(Cl)c3)n2)C[C@@H]1O [Compound I-54, {(1R,2S,4R)-4-[(6-Chloro-5-{[1-(3-chlorobenzyl)-1H-pyrazol-3-yl]carbonyl}pyrimidin-4-yl)amino]-2-hydroxycyclopentyl}methyl sulfamate]	10 to 100 nM	63%	–
NS(=O)(=O)OC[C@H]1C[C@@H](Nc2ncncc2C(=O)c2ccn(Cc3cccc(C(F)(F)F)c3)n2)[C@H](O)[C@@H]1O [Compound I-119, [(1R,2R,3S,4R)-2,3-dihydroxy-4-{[5-({1-[3-(trifluoromethyl)benzyl]-1H-pyrazol-3-yl}carbonyl)pyrimidin-4-yl]amino}cyclopentyl]methyl sulfamate]	< 10 nM	98%	–
Cc1cccc(Cn2ccc(C(=O)c3cncnc3N[C@@H]3C[C@H](COS(N)(=O)=O)[C@@H](O)C3)n2)c1 [Compound I-128, {(1R,2S,4R)-2-hydroxy-4-[(5-{[1-(3-methylbenzyl)-1H-pyrazol-3-yl]carbonyl}pyrimidin-4-yl)amino]cyclopentyl}methyl sulfamate]	< 10 nM	98%	–
CSCCn1ccc(C(=O)c2cncnc2N[C@@H]2C[C@H](COS(N)(=O)=O)[C@@H](O)C2)n1 [Compound I-37, [(1R,2S,4R)-2-hydroxy-4-{[5-({1-[2-(methylsulfanyl)ethyl]-1H-pyrazol-3-yl}carbonyl)pyrimidin-4-yl]amino}cyclopentyl]methyl sulfamate]	100 to 1000 nM	42%	–
NS(=O)(=O)OC[C@H]1C[C@@H](Nc2ncncc2C(=O)c2ccn(Cc3ccc(F)cc3F)n2)[C@H](O)[C@@H]1O [Compound I-336, {(1R,2R,3S,4R)-4-[(5-{[1-(2,4-difluorobenzyl)-1H-pyrazol-3-yl]carbonyl}pyrimidin-4-yl)amino]-2,3-dihydroxycyclopentyl}methyl sulfamate]	< 10 nM	97%	–
Cc1cc(C(=O)c2cncnc2N[C@@H]2C[C@H](COS(N)(=O)=O)[C@@H](O)[C@@H]2F)nn1Cc1cccc(I)c1 [Compound I-294, {(1R,2R,3R,4R)-3-fluoro-2-hydroxy-4-[(5-{[1-(3-iodobenzyl)-5-methyl-1H-pyrazol-3-yl]carbonyl}pyrimidin-4-yl)amino]cyclopentyl}methyl sulfamate]	< 10 nM	100%	–
CC(c1ccc(C(F)(F)F)o1)n1ccc(C(=O)c2cncnc2N[C@@H]2C[C@H](COS(N)(=O)=O)[C@@H](O)[C@@H]2F)c1 (single isomer, unassigned) [Compound I-304, [(1R,2R,3R,4R)-3-fluoro-2-hydroxy-4-({5-[(1-{(1S)-1-[5-(trifluoromethyl)-2-furyl]ethyl}-1H-pyrrol-3-yl)carbonyl]pyrimidin-4-yl}amino)cyclopentyl]methyl sulfamate or [(1R,2R,3R,4R)-3-fluoro-2-hydroxy-4-({5-[(1-{(1R)-1-[5-(trifluoromethyl)-2-furyl]ethyl}-1H-pyrrol-3-yl)carbonyl]pyrimidin-4-yl}amino)cyclopentyl]methyl sulfamate]	10 to 100 nM	91%	–
CC#CC(C)n1ccc(C(=O)c2cncnc2N[C@@H]2C[C@H](COS(N)(=O)=O)[C@@H](O)C2)n1 (single isomer, unassigned) [Compound I-86, {(1R,2S,4R)-2-hydroxy-4-[(5-{[1-(2S)-(pent-3-yn-2-yl)-1H-pyrazol-3-yl]carbonyl}pyrimidin-4-yl)amino]cyclopentyl}methyl sulfamate or {(1R,2S,4R)-2-hydroxy-4-[(5-{[1-(2R)-(pent-3-yn-2-yl)-1H-pyrazol-3-yl]carbonyl}pyrimidin-4-yl)amino]cyclopentyl}methyl sulfamate]	100 to 1000 nM	–	35%
C#Cc1cccc(Cn2nc(C(=O)c3cncnc3N[C@@H]3C[C@H](COS(N)(=O)=O)[C@@H](O)C3)cc2C)c1 [Compound I-164, {(1R,2S,4R)-4-[(5-{[1-(3-ethynylbenzyl)-5-methyl-1H-pyrazol-3-yl]carbonyl}pyrimidin-4-yl)amino]-2-hydroxycyclopentyl}methyl sulfamate]	< 10 nM	> 99%	–
